biological target: hPAD4 enzyme (Homo sapiens (Human), UniProt Q9UM07); test: RFMS2 assay (RapidFire mass spectrometry, TSTGGRQGSHH peptide substrate); format: biochemical; details: 35 nM recombinant human PAD4, 500 μM TSTGGRQGSHH peptide, 30 minutes at room temperature; read-out: RFMS 2 IC50
Method in brief: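 IC50 derived from RapidFire LC-MS/MS (positive ESI MRM) of substrate versus product after a 30 min room-temperature reaction stopped with 10% formic acid. Reaction contained 35 nM human PAD4, 500 μM peptide, 2 mM CaCl2, 5 mM DTT at pH 7.4, and compounds diluted 3-fold from 20 μM.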

Chain of hPAD4 enzyme (Q9UM07 whole entry): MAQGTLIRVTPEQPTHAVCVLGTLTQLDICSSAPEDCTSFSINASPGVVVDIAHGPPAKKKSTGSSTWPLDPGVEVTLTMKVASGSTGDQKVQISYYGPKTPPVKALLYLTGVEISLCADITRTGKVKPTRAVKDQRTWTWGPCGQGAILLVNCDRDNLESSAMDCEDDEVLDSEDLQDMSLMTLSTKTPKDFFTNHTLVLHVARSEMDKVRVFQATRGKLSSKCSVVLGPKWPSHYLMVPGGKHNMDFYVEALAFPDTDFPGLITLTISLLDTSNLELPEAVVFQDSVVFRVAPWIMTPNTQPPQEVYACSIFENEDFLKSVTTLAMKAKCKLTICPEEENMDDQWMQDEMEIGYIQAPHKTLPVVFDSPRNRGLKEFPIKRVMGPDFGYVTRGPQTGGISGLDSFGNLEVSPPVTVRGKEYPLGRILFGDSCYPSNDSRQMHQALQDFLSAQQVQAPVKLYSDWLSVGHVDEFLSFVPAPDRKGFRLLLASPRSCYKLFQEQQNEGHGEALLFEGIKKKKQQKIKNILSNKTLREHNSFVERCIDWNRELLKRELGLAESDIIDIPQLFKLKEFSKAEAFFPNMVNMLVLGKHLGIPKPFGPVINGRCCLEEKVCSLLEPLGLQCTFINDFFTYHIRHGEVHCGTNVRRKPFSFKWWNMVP

First: Cn1c(-c2cc3cccc(OCc4cnco4)c3n2CC2CC2)nc2cc3c(cc21)CCN(C[C@H](N)CF)C3=O [Example 166, (S)-6-(2-amino-3-fluoropropyl)-2-(1-(cyclopropyl-methyl)-7-(oxazol-5-ylmethoxy)-1H-indol-2-yl)-1-methyl-1,6,7,8-tetrahydro-5H-imidazo[4,5-g] isoquinolin-5-one]
Second: Cn1c(-c2cc3cccc(OCCc4cnco4)c3n2CC2CC2)nc2cc3c(cc21)CCN(C[C@H](N)CF)C3=O [Example 194, (S)-6-(2-amino-3-fluoropropyl)-2-(1-(cyclopropylmethyl)-7-(2-(oxazol-5-yl)ethoxy)-1H-indol-2-yl)-1-methyl-1,6,7,8-tetrahydro-5H-imidazo[4,5-g]isoquinolin-5-one]
The IC50 of the first is higher: 101 to 500 nM for the first, 11 to 100 nM for the second.

`Cn1c(-c2cc3cccc(OCc4ccon4)c3n2CC2CC2)nc2cc3c(cc21)CCN(C[C@H](N)CF)C3=O` [Example 167, (S)-6-(2-amino-3-fluoropropyl)-2-(1-(cyclopropylmethyl)-7-(isoxazol-3-ylmethoxy)-1H-indol-2-yl)-1-methyl-1,6,7,8-tetrahydro-5H-imidazo[4,5-g]isoquinolin-5-one] and `Cn1c(-c2cc3cccc(OCCc4ccon4)c3n2CC2CC2)nc2cc3c(cc21)CCN(C[C@H](N)CF)C3=O` [Example 170, (S)-6-(2-amino-3-fluoropropyl)-2-(1-(cyclopropyl-methyl)-7-(2-(isoxazol-3-yl)ethoxy)-1H-indol-2-yl)-1-methyl-1,6,7,8-tetrahydro-5H-imidazo[4,5-g] isoquinolin-5-one] fall in the same range of IC50: 101 to 500 nM for the first, 101 to 500 nM for the second.

`Cn1c(-c2cc3cccc(OC[C@H]4CNC(=O)O4)c3n2CC2CC2)nc2cc3c(cc21)CCN(C[C@H](N)CF)C3=O` [Example 168, (R)-5-(((2-(6-((S)-2-amino-3-fluoropropyl)-1-methyl-5-oxo-5,6,7,8-tetrahydro-1H-imidazo [4,5-g]isoquinolin-2-yl)-1-(cyclopropylmethyl)-1H-indol-7-yl)oxy)methyl)oxazolidin-2-one] and `Cn1c(-c2cc3cccc(OCC4COC(=O)N4)c3n2CC2CC2)nc2cc3c(cc21)CCN(C[C@H](N)CF)C3=O` (stereo partly drawn) [Example 172, 4-(((2-(6-((S)-2-amino-3-fluoropropyl)-1-methyl-5-oxo-5,6,7,8-tetrahydro-1H-imidazo[4,5-g]isoquinolin-2-yl)-1-(cyclopropylmethyl)-1H-indol-7-yl)oxy)methyl)oxazolidin-2-one] fall in the same range of IC50: 11 to 100 nM for the first, 11 to 100 nM for the second.

`Cn1c(-c2cc3cccc(OCc4ccnnc4)c3n2CC2CC2)nc2cc3c(cc21)CCN(C[C@H](N)CF)C3=O` [Example 171, (S)-6-(2-amino-3-fluoropropyl)-2-(1-(cyclopropylmethyl)-7-(pyridazin-4-ylmethoxy)-1H-indol-2-yl)-1-methyl-1,6,7,8-tetrahydro-5H-imidazo [4,5-g]isoquinolin-5-one] and `Cn1c(-c2cc3cccc(OCc4cccnn4)c3n2CC2CC2)nc2cc3c(cc21)CCN(C[C@H](N)CF)C3=O` [Example 183, (S)-6-(2-amino-3-fluoropropyl)-2-(1-(cyclopropylmethyl)-7-(pyridazin-3-ylmethoxy)-1H-indol-2-yl)-1-methyl-1,6,7,8-tetrahydro-5H-imidazo[4,5-g]isoquinolin-5-one] fall in the same range of IC50: 101 to 500 nM for the first, 101 to 500 nM for the second.

Compared with `Cn1c(-c2cc3cccc(OCCc4cc[nH]n4)c3n2CC2CC2)nc2cc3c(cc21)CCN(C[C@H](N)CF)C3=O` [Example 173, (S)-2-(7-(2-(1H-pyrazol-3-yl)ethoxy)-1-(cyclopropylmethyl)-1H-indol-2-yl)-6-(2-amino-3-fluoropropyl)-1-methyl-1,6,7,8-tetrahydro-5H-imidazo [4,5-g]isoquinolin-5-one], `Cn1c(-c2cc3cccc(OCCc4cocn4)c3n2CC2CC2)nc2cc3c(cc21)CCN(C[C@H](N)CF)C3=O` [Example 196, (S)-6-(2-amino-3-fluoropropyl)-2-(1-(cyclopropylmethyl)-7-(2-(oxazol-4-yl)ethoxy)-1H-indol-2-yl)-1-methyl-1,6,7,8-tetrahydro-5H-imidazo[4,5-g]isoquinolin-5-one] is higher in IC50: 11 to 100 nM for the first, 101 to 500 nM for the second.

`Cn1c(-c2cc3cccc(OCc4ccno4)c3n2CC2CC2)nc2cc3c(cc21)CCN(C[C@H](N)CF)C3=O` [Example 175, (S)-6-(2-amino-3-fluoropropyl)-2-(1-(cyclopropyl-methyl)-7-(isoxazol-5-ylmethoxy)-1H-indol-2-yl)-1-methyl-1,6,7,8-tetrahydro-5H-imidazo[4,5-g] isoquinolin-5-one] and `CC(Oc1cccc2cc(-c3nc4cc5c(cc4n3C)CCN(C[C@H](N)CF)C5=O)n(CC3CC3)c12)c1ccno1` (stereo partly drawn) [Example 197, 6-((S)-2-amino-3-fluoropropyl)-2-(1-(cyclopropylmethyl)-7-(1-(isoxazol-5-yl)ethoxy)-1H-indol-2-yl)-1-methyl-1,6,7,8-tetrahydro-5H-imidazo[4,5-g]isoquinolin-5-one] fall in the same range of IC50: 101 to 500 nM for the first, 101 to 500 nM for the second.

`Cn1c(-c2cc3cccc(OCc4nnco4)c3n2CC2CC2)nc2cc3c(cc21)CCN(C[C@H](N)CF)C3=O` [Example 176, (S)-2-(7-((1,3,4-oxadiazol-2-yl)methoxy)-1-(cyclopropylmethyl)-1H-indol-2-yl)-6-(2-amino-3-fluoropropyl)-1-methyl-1,6,7,8-tetrahydro-5H-imidazo[4,5-g]isoquinolin-5-one] and `Cc1nnc(COc2cccc3cc(-c4nc5cc6c(cc5n4C)CCN(C[C@H](N)CF)C6=O)n(CC4CC4)c23)o1` [Example 177, (S)-6-(2-amino-3-fluoropropyl)-2-(1-(cyclopropyl-methyl)-7-((5-methyl-1,3,4-oxadiazol-2-yl)methoxy)-1H-indol-2-yl)-1-methyl-1,6,7,8-tetrahydro-5H-imidazo[4,5-g]isoquinolin-5-one] fall in the same range of IC50: 101 to 500 nM for the first, 101 to 500 nM for the second.

`Cn1c(-c2cc3cccc(OCCn4cccc4)c3n2CC2CC2)nc2cc3c(cc21)CCN(C[C@H](N)CF)C3=O` [Example 180, (S)-2-(7-(2-(1H-pyrrol-1-yl)ethoxy)-1-(cyclopropyl-methyl)-1H-indol-2-yl)-6-(2-amino-3-fluoropropyl)-1-methyl-1,6,7,8-tetrahydro-5H-imidazo[4,5-g] isoquinolin-5-one] and `Cc1nncn1CCOc1cccc2cc(-c3nc4cc5c(cc4n3C)CCN(C[C@H](N)CF)C5=O)n(CC3CC3)c12` [Example 182, (S)-6-(2-amino-3-fluoropropyl)-2-(1-(cyclopropylmethyl)-7-(2-(3-methyl-4H-1,2,4-triazol-4-yl)ethoxy)-1H-indol-2-yl)-1-methyl-1,6,7,8-tetrahydro-5H-imidazo[4,5-g]isoquinolin-5-one] fall in the same range of IC50: 101 to 500 nM for the first, 101 to 500 nM for the second.

First: Cn1c(-c2cc3cccc(OCC4CC(F)(F)C(=O)N4)c3n2CC2CC2)nc2cc3c(cc21)CCN(C[C@H](N)CF)C3=O (stereo partly drawn) [Example 185, 6-((S)-2-amino-3-fluoropropyl)-2-(1-(cyclopropylmethyl)-7-((4,4-difluoro-5-oxopyrrolidin-2-yl)methoxy)-1H-indol-2-yl)-1-methyl-1,6,7,8-tetrahydro-5H-imidazo[4,5-g]isoquinolin-5-one]
Second: Cn1c(-c2cc3cccc(OC[C@@H]4COCCN4)c3n2CC2CC2)nc2cc3c(cc21)CCN(C[C@H](N)CF)C3=O [Example 187, 6-((S)-2-amino-3-fluoropropyl)-2-(1-(cyclopropylmethyl)-7-(((S)-morpholin-3-yl)methoxy)-1H-indol-2-yl)-1-methyl-1,6,7,8-tetrahydro-5H-imidazo[4,5-g]isoquinolin-5-one]
The IC50 of the first is lower: 101 to 500 nM for the first, > 1000 nM for the second. The first is the more potent here.

First: Cn1c(-c2cc3cccc(OC[C@H]4COCCN4)c3n2CC2CC2)nc2cc3c(cc21)CCN(C[C@H](N)CF)C3=O [Example 188, 6-((S)-2-amino-3-fluoropropyl)-2-(1-(cyclopropylmethyl)-7-(((R)-morpholin-3-yl)methoxy)-1H-indol-2-yl)-1-methyl-1,6,7,8-tetrahydro-5H-imidazo[4,5-g]isoquinolin-5-one]
Second: Cn1c(-c2cc3cccc(OCc4cocn4)c3n2CC2CC2)nc2cc3c(cc21)CCN(C[C@H](N)CF)C3=O [Example 189, (S)-6-(2-amino-3-fluoropropyl)-2-(1-(cyclopropylmethyl)-7-(oxazol-4-ylmethoxy)-1H-indol-2-yl)-1-methyl-1,6,7,8-tetrahydro-5H-imidazo[4,5-g]isoquinolin-5-one]
The IC50 of the first is higher: 501 to 1000 nM for the first, 101 to 500 nM for the second.

`C[C@@H](CCO)Oc1cccc2cc(-c3nc4cc5c(cc4n3C)CCN(C[C@H](N)CF)C5=O)n(CC3CC3)c12` [Example 191, 6-((S)-2-amino-3-fluoropropyl)-2-(1-(cyclopropylmethyl)-7-(((S)-4-hydroxybutan-2-yl)oxy)-1H-indol-2-yl)-1-methyl-1,6,7,8-tetrahydro-5H-imidazo[4,5-g]isoquinolin-5-one] and `C[C@H](CCO)Oc1cccc2cc(-c3nc4cc5c(cc4n3C)CCN(C[C@H](N)CF)C5=O)n(CC3CC3)c12` [Example 192, 6-((S)-2-amino-3-fluoropropyl)-2-(1-(cyclopropylmethyl)-7-(((R)-4-hydroxybutan-2-yl)oxy)-1H-indol-2-yl)-1-methyl-1,6,7,8-tetrahydro-5H-imidazo[4,5-g]isoquinolin-5-one] fall in the same range of IC50: 101 to 500 nM for the first, 101 to 500 nM for the second.

First: Cn1c(-c2cc3cccc(OCc4cn[nH]c4)c3n2CC2CC2)nc2cc3c(cc21)CCN(C[C@H](N)CF)C3=O [Example 193, (S)-2-(7-((1H-pyrazol-4-yl)methoxy)-1-(cyclopropylmethyl)-1H-indol-2-yl)-6-(2-amino-3-fluoropropyl)-1-methyl-1,6,7,8-tetrahydro-5H-imidazo[4,5-g]isoquinolin-5-one]
Second: COC(=O)NC[C@@H](C)Oc1cccc2cc(-c3nc4cc5c(cc4n3C)CCN(C[C@H](N)CF)C5=O)n(CC3CC3)c12 [Example 200, methyl ((R)-2-((2-(6-((S)-2-amino-3-fluoropropyl)-1-methyl-5-oxo-5,6,7,8-tetrahydro-1H-imidazo[4,5-g]isoquinolin-2-yl)-1-(cyclopropylmethyl)-1H-indol-7-yl)oxy)propyl)carbamate]
The IC50 of the first is lower: 11 to 100 nM for the first, 101 to 500 nM for the second. The first is the more potent here.

— patent US20250346592A1 (Celgene Corporation, priority 2022, published 2025)
